Literature values, collected in patent US20110052683A1, “PHARMACEUTICAL PREPARATION FOR TREATING CARDIOVASCULAR DISEASE” (priority 2008, published 2011).

Assays:
[1] = combined administration of atorvastatin with diltiazem
[2] = combined administration of pravastatin with verapamil
[3] = combined administration of lovastatin with diltiazem

CC(C)c1c(C(=O)Nc2ccccc2)c(-c2ccccc2)c(-c2ccc(F)cc2)n1CC[C@@H](O)C[C@@H](O)CC(=O)O [atorvastatin]
side effects of combined administration [1]: occurrence of rhabdomyolysis and acute hepatitis

CC[C@H](C)C(=O)O[C@H]1C[C@H](O)C=C2C=C[C@H](C)[C@H](CC[C@@H](O)C[C@@H](O)CC(=O)O)[C@H]21 [pravastatin]
increase in AUC [2]: 31% | increase in Cmax [2]: 42%

CC[C@H](C)C(=O)O[C@H]1C[C@@H](C)C=C2C=C[C@H](C)[C@H](CC[C@@H]3C[C@@H](O)CC(=O)O3)[C@H]21 [lovastatin]
change in Cmax and AUC [3]: sudden increase in Cmax and AUC
